Measurements published in paper PMC5291098, “Molecular mutagenesis of ppGpp: turning a RelA activator into an inhibitor” (Scientific Reports, 2017).
“Also recorded” adds a separate entry of the source. Like-named read-outs stand apart in the source and are kept apart here.

Key:
ΔywaCΔyjbM B. subtilis = test: Growth of ΔywaCΔyjbM B. subtilis in valine drop-out S7 medium (functional test for Rel inhibition); format: cell-based, Bacillus subtilis; settings: up to 1 mM (0 to 1000 µM)
From the text: Finally, we tested the three of our most promising inhibitors (DR-4250, DR-M014 and DR-5163) for RSH inhibition in bacterial culture. For this we used the Gram-positive bacterium B. subtilis due to its better uptake of compounds as compared to Gram-negative species such as E. coli[50]. The functional test for RSH inhibition relied on the auxotrophy of (p)ppGpp-deficient (ppGpp^0) B. subtilis for methionine and branched-chain amino acids valine, leucine and isoleucine. The B. subtilis RSH repertoire consists of one multi-domain ribosome-associated enzyme Rel and two SAS, YwaC and YjbM[3][52]. Because the SAS RelQEf is refractory to inhibition by our test compounds (Supplementary Figure 2), we used a B. subtilis strain lacking SASs (ΔywaCΔyjbM), in which the sole source of (p)ppGpp is Rel[53]. Defined S7 medium[54] lacking valine supports the growth of ΔywaCΔyjbM B. subtilis, but not the ppGpp^0 stain (Supplementary Figure 5). […] This is indicative of the test compounds failing to inhibit Rel and thereby rendering the strain phenotypically ppGpp^0 (Supplementary Figure 5). A lack of cellular uptake is a likely explanation. […]
Growth assays with Bacillus subtilis BSB1 wild type strain
SAS deletion and ppGpp0 strain of B. subtilis5 were grown in S7 liquid medium6 except for amino acid requirements, which were met as described elsewhere 7. On 96-well plate, 90 µl of B subtilis starter culture was mixed with 10 µL of compound dilution (in 5 mM Tris pH 7.2) so that final OD600 was 0.025 (l = 1 cm).
Following incubation was without shaking at 37°C and growth was monitored with Tecan Infinite M200 at OD600 (raw OD600 values are reported). B. subtilis starter culture was prepared as follows. Late exponential phase cells in S7, with full set of amino acids, were diluted ≈10-fold in S7 lacking either valine or lysine so that, after addition of 8% DMSO, OD600 was 0.25. Next, cell suspensions were aliquoted, frozen in liquid nitrogen, and stored at -80°C. Just before the experiment, cells were thawed on ice and appropriate amount of media was […]
DywaC DyjbM BSB1 B. subtilis ppGpp0. BSB1 B. subtilis wild type strain as grown on S7 synthetic media8 drop-out media lacking valine which abolishes the growth of ppGpp0 (Drel DywaC DyjbM) strain due to valine auxotrophy (dashed line). […]
inhibit the Rel and render the strain ppGpp0.

E. coli RelA = molecular target: T1, E. coli RelA (Escherichia coli, UniProt P0AG20); test: Inhibition of [3H]GDP to [3H]ppGpp conversion by E. coli RelA activated by vacant 70S ribosomes and 100 μM ppGpp; format: biochemical; settings: for IC50: 30 nM RelA, 0.5 μM vacant 70S, 100 μM ppGpp; for nHill (Hill coefficient of the titration fit): Supplementary Table 1, 4-parameter logistic model
T1 construct: made in house
Experimental: For the initial characterization of compounds, we followed the inhibition of [^3H] GDP conversion to [^3H] ppGpp catalyzed by E. coli RelA in a simplified system in which RelA’s activity was induced by vacant 70S ribosomes and 100 μM of ppGpp[15]. Unlabeled ppGpp was added to reaction mixtures in order to linearize the kinetics of [^3H] ppGpp synthesis due to an activating effect on the RelA enzyme. We used a targeted library of 69 nucleotides belonging to several structural classes: ‘true’ ppGpp analogues; Relacin and its derivatives; pyrrolidine, azetidine, piperidine and acyclic phosphonates. Chemical structures of tested compounds and titrations in the RelA:70S:ppGpp system are presented in Supplementary Table 1.
Detailed description of experimental procedures can be found in Supplementary Text. Biochemical assays utilize in vitro translation[58] and stringent response[15] systems from E. coli purified components. Experiments were performed in HEPES:Polymix[58] buffer with either 5 (for enzymatically assembled initiation complexes) or 15 mM (for vacant 70 S, as well as non-enzymatically assembled programmed ribosomes) Mg^2+. Expression and purification of E. faecalis RelQ was performed as per Gaca (2015) and colleagues. GTPase and ppGpp synthesis were followed using TLC separation and radiochemical detection of ^3H-labelled nucleotides. Multiple round in vitro transcription assays were performed as per Bernardo et al.[49] with minor modifications. Inhibition efficiency (IC50) was calculated using 4-parameter logistic model (Hill equation) as per Sebaugh[60].
(§1) Thin layer chromatography (TLC) analysis of nucleotide mixtures
(§2) Both EF-G GTPase reaction and ppGpp synthesis by RelA were followed by TLC analysis followed by scintillation counting according to Mechold and colleagues, with modifications1. Time points from the reaction mixtures (5 μl, see below for details) were quenched by addition 4 μl 70% formic acid supplemented with a cold nucleotide standard used for UV-shadowing (10 mM GDP and 10 mM GTP) and spotted on PEI-TLC plates (Macherey-Nagel). TLC was run in buffer, plates dried, cut into sections guided by UV-shadowing and 3H radioactivity was quantified by scintillation counting in Optisafe-3 (Fisher) scintillation cocktail on Perkin Elmer Tricarb 2810TR counter. Conversion of substrate to product was quantified as described in Shyp et al. (2012)2.
Enzymatic assays with E. coli RelA
Screening: all experiments were performed in HEPES:Polymix, Mg2+ of 5 mM, 37 […]
μM ppGpp was pre-incubated at 37° C for 2 min and then reaction started by addition of 1 mM ATP, time points (5 μl) taken, quenched with formic acid and analyzed by TLC. Inhibition efficiency (IC50) was calculated using 4-parameter logistic model (Hill equation) as per Sebaugh (2011)3. […]

[1] = system: T2, E. coli σ70-RNAP holoenzyme; test: Multiple round in vitro transcription by σ70-RNAP (rrnB P1 and rna1 promoters); format: biochemical, Escherichia coli; settings: for Effect of DksA addition on RNAP inhibition, rrnB P1 promoter (in words): 2 μM DksA; for Inhibition of RNAP, rrnB P1 promoter (in words): absence of DksA, irrespective of presence or absence of 100 μM ppGpp
T2 construct: purchased Epicentre
Experimental: Next, we tested their effects on RNAP. […] We used multiple round in vitro transcription driven from the rrnB P1, a well-characterized ppGpp/DksA inhibited promoter, as described earlier[49]. The assays were performed in the presence and absence of 2 μM DksA and/or 100 μM ppGpp (Fig. 5a).
Effect of inhibitors on rrnB P1 (−66 to +50) promoter transcription by RNAP. Graphs depicting inhibitor (0, 0.025, 0.05, 0.15, 0.4 and 0.6 mM) titrations performed at 30 °C in T-buffer with 0.5 nM template (σ^70-rrnB P1 promoter (pRLG6214)) and 5 nM σ^70-RNAP, in presence or absence of 100 μM ppGpp and/or 2 μM DksA. Error bars represent standard deviations of linear regression estimates, each experiment was performed at least three times.
The assays were performed as per Bernardo et al. (2006)4 with minor modifications. Reactions were carried out in T-buffer (50 mM Tris-HCl pH 7.5, 100 mM NaCl, 10 mM MgCl2, 1 mM dithiothreitol, 0.1 mM EDTA and 0.275 mg of BSA per ml) at 30°C. Inhibitors were titrated to final concentrations of 0, 0.025, 0.05, 0.15, 0.4 and 0.6 mM. E. coli s 70-RNAP holoenzyme (Epicentre, final concentration 5 nM) and template plasmid DNA containing s70-rrnB P1 promoter, (pRLG6214, final concentration 0.5 nM) was used for all experiments. Before initiation of transcription, E. coli s70-RNAP holoenzyme and T buffer were incubated at 30°C for 5 min. Above mix was added to predispensed mixture of inhibitor and the template plasmid DNA containing s70-rrnB P1 promoter (pRLG6214), incubated for further 20 min to initiate open complex formation. 2.5 µl of a mixture of ATP (ﬁnal concentration 0.5 mM), GTP and CTP (ﬁnal concentration 0.2 mM each), UTP (ﬁnal concentration 0.08 mM) and [a-32P]-UTP (5 µCi at > 3000 Ci/mmol, PerkinElmer) was added to initiate transcription by RNAP. After 7 min, 1 µl heparin (0.125 mg/ml ﬁnal concentration) was added to the reaction mixture to prevent re-initiation and further incubated for 5 min to allow completion of initiated transcripts. Transcription was terminated by addition of formamide loading buffer and samples were electrophoresed on a 7M urea-5% polyacrylamide gel and quantified by phosphorimaging.

E. coli EF-G = system: T3, E. coli EF-G; format: biochemical; settings: up to 1 mM
T3 construct: made in house
Experimental: as §1
as §2, with “(2012)2. […]” for “(2012)2.”
GTPase assays with E. coli EF-G
The reaction mixture contained 0.5 μM 70S, 0.1 μM EF-G, in HEPES:Polymix (25 mM Hepes 7.5/ 1 mM DTT / 5 mM Mg2+) pre-incubated for 2 minutes at 37°C prior to addition of 300 μM [3H]GTP substrate (Hartman), after which time points (5 μl) taken, quenched with formic acid and analyzed by TLC (see above). […]

[2] = 0.3 mM [3H]GDP, 1 mM ATP, read-out: IC50
[3] = 5 mM Mg2+, 37 °C, no unit beside the value, titration axis in mM, read-out: IC50 (Supplementary Table 1, example titration)

T1 sequence (P0AG20 whole entry): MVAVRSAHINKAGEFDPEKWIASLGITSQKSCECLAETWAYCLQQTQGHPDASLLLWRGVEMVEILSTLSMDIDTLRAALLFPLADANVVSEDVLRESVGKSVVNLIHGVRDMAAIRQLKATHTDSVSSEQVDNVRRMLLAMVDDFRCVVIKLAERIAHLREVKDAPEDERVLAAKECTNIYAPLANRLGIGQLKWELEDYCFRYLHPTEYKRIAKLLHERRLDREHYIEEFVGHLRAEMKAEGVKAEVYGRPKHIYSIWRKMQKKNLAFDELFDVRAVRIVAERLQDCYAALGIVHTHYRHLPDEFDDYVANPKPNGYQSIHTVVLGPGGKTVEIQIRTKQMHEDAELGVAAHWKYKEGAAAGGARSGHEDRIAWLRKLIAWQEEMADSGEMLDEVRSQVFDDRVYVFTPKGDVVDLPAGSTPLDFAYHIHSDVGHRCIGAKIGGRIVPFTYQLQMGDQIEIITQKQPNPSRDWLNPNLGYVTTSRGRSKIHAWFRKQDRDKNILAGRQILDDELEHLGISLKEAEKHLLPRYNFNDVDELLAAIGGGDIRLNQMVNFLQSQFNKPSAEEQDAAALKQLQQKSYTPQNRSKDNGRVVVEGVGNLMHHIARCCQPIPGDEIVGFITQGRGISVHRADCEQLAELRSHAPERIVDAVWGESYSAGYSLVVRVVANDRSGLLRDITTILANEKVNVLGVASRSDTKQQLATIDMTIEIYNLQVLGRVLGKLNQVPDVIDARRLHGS

Structure (SMILES): Nc1nc2c(ncn2C2OC(COP(=O)(O)OCP(=O)(O)O)C(OP(=O)(O)OCP(=O)(O)O)C2O)c(=O)[nH]1 (stereo not shown) [DR-4250, Guanosine 3’,5’-di(phosphonomethoxyphosphate)]
- Effect on growth of ΔywaCΔyjbM B. subtilis (in words) (ΔywaCΔyjbM B. subtilis): did not affect bacterial growth; also recorded: does not affect the growth
- IC50 (E. coli RelA; [2]): 0.054 ± 0.003 mM
- IC50 (E. coli RelA; [3]): 0.053 ± 0.003 mM
- nHill (Hill coefficient of the titration fit) (E. coli RelA): 2.74 ± 0.5
- Effect of DksA addition on RNAP inhibition, rrnB P1 promoter (in words) [1]: pronounced protective effect
- Inhibition of RNAP, rrnB P1 promoter (in words) [1]: more potent inhibitors of RNAP then of RelA
- Inhibition of RNAP, ppGpp-insensitive promoter rna1 (in words) ([1]; presence or absence of 100 μM ppGpp and/or 2 μM DksA (Supplementary Figure 4)): the same behavior
- Inhibitory effect on EF-G GTPase activity (in words) (E. coli EF-G): no inhibitory effect

Structure (SMILES): Nc1nc2c(ncn2C2CCN(C(=O)P(=O)(O)O)CC2)c(=O)[nH]1 [DR-M014]
- Effect on growth of ΔywaCΔyjbM B. subtilis (in words) (ΔywaCΔyjbM B. subtilis): does not affect the growth
- Effect on growth of ΔywaCΔyjbM B. subtilis (in words) (ΔywaCΔyjbM B. subtilis; listed as DR-M013): did not affect bacterial growth
- IC50 (E. coli RelA; [2]): 0.121 ± 0.02 mM
- IC50 (E. coli RelA; [3]): 0.12 ± 0.02 mM
- nHill (Hill coefficient of the titration fit) (E. coli RelA): 1.9 ± 0.5
- Effect of DksA addition on RNAP inhibition, rrnB P1 promoter (in words) [1]: pronounced protective effect
- Inhibition of RNAP, rrnB P1 promoter (in words) [1]: more potent inhibitors of RNAP then of RelA
- Inhibitory effect on EF-G GTPase activity (in words) (E. coli EF-G): no inhibitory effect
